{"source": "patent US6803357B1", "about": "“Method of regulating glucose metabolism, and reagents related thereto” (New England Medical Center Hospitals, Inc., priority 1999, dated 2004)", "key": {"[1]": {"tested_on": "DP-IV", "test": "inhibition of / affinity for DP-IV", "format": "biochemical", "experimental": "As an illustrative embodiment, the ability of a test agent to inhibit DPIV can be assessed using a calorimetric or fluorometric substrate, such as Ala-Pro-paranitroanilide. […] Moreover, DPIV can be purified, and is accordingly readily amenable for use in such high throughput formats as multi-well plates.\nAn illustrative reaction mixture includes […] (pH7.8), 10 μM Ala-Pro-paranitroanilide, 6 milliunits of DPIV, and 2% (v/v) dimethylformamide in a total volume of 1.0 mL. The reaction is initiated by addition of enzyme, and formation of reaction product (paranitroanilide) in the presence and absence of a test compound can be detected photometrically, e.g., at 410 nm."}, "[2]": {"tested_on": "blood glucose levels", "test": "oral glucose tolerance test (oral glucose challenge) in mice", "format": "in vivo", "conditions": "for glucose levels in blood / glucose control after a single injection: acute, single injection before oral glucose tolerance test; for blood sugar levels / glycemic excursion to oral glucose challenge, chronic treatment: injected twice daily for four days, then oral glucose challenge; for response to a sub-therapeutic dose of GLP-1: single injection, 8 μg GLP-1 five minutes prior to glucose", "experimental": "The first two experiments are “acute” experiments wherein the mice were injected with a single dose of Pro-boro-pro. In the first set of experiments mice were injected with 150 μg of Pro-boro-pro (PBP-1) and then subjected to an oral glucose tolerance test within an hour. […] In a second set of experiments mice were injected with Pro-boro-pro (PBP-2) one hour prior to an oral glucose challenge test. FIG. 3 presents the results of these experiments. Each set of experiments was also performed using saline as a control.\nThe third set of experiments were “chronic” experiments, wherein the mice were injected twice daily with Pro-boro-pro for four days, followed by an oral glucose challenge."}}, "data": [{"compound": "CC(NC(=O)OC(C)(C)C)C(=O)N1CCCC1B(O)O", "note": "(stereo not drawn) [Boc-blocked Ala-boroPro, Boc-Ala-boroPro]", "values": [{"measurement": "affinity for DP-IV", "setting": "[1]", "result": "no affinity"}]}, {"compound": "O=C(C1CCCN1)N1CCCC1B(O)O", "note": "(centres unmarked) [Pro-boro-pro]", "values": [{"measurement": "fasting blood sugars, chronic treatment", "setting": "[2]; chronic (>5 days) treatment alone", "result": "lowers"}, {"measurement": "glucose levels in blood / glucose control after a single injection", "setting": "[2]; mice", "result": "alone sufficient to improve glucose control"}, {"measurement": "glucose levels in blood / glucose control after a single injection", "setting": "[2]; mice, listed as PBP-1", "result": "improves glucose levels in blood"}, {"measurement": "glucose levels in blood / glucose control after a single injection", "setting": "[2]; mice, listed as PBP-2", "result": "improves glucose levels in blood"}, {"measurement": "blood sugar levels / glycemic excursion to oral glucose challenge, chronic treatment", "setting": "[2]; mice", "result": "lowers"}, {"measurement": "blood sugar levels / glycemic excursion to oral glucose challenge, chronic treatment", "setting": "[2]; mice, listed as PBP-3", "result": "lowering of the blood sugar levels"}, {"measurement": "blood sugar, oral glucose challenge", "setting": "[2]; mice, overall statement on the experiments", "result": "clearly lowers blood sugar"}, {"measurement": "response to a sub-therapeutic dose of GLP-1", "setting": "[2]; mice", "result": "potentiate the response"}, {"measurement": "response to a sub-therapeutic dose of GLP-1", "setting": "[2]; mice, listed as PBP-1", "result": "potentiates the response"}]}, {"compound": "L-Ala-L-boroPro-pinacol [early fraction]", "values": [{"measurement": "extent of DP-IV inhibition compared with later fractions", "setting": "[1]; at equal concentrations, silica gel fractions of Ala-boroPro-pinacol", "result": "inhibits DP-IV to a greater extent than later fractions"}]}]}
